According to US9676782B2, “Substituted pyrazolo[1,5-a]pyrazines as negative allosteric modulators of metabotropic glutamate receptor 3” (Vanderbilt University, priority 2014, dated 2017):
Read-outs that look alike come from different tables or passages of the source.

Columns and labels:
rat mGlu3 = rat mGlu3 (Rattus norvegicus (Rat), UniProt P31422); assay: mGlu3 Ca2+ flux assay; type: cell-based; details: for remaining activity at 30 µM: amplitude of response at 30 μM test compound as % of maximal response to glutamate, read-out: rat mGlu3 Glu max (%)
Outline: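 Cells expressing rat mGlu3 were grown overnight at 37° C. under 5% CO2, then loaded with dye. After dye removal they received 20 μL of assay buffer and sat 10 minutes at room temperature. Calcium flux was read on a Hamamatsu FDSS7000, and fluorescence was expressed as fold over basal and normalized to the maximal glutamate response.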

rat mGlu5 = rat mGlu5 (Rattus norvegicus (Rat), UniProt P31424); assay: mGlu5 Ca2+ flux assay; type: cell-based; details: for Fold selectivity (mGlu3 vs. mGlu5): ratio of rat mGlu5 EC50 or IC50 to rat mGlu3 IC50; for Emax at 30 µM: PAM, amplitude of response at 30 μM test compound as % of maximal response to glutamate, read-out: rat mGlu5 Glu max (%)
Outline: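 Transfected cells grown overnight at 37° C/5% CO2, dye-loaded, then 5 min in assay buffer at RT before Ca2+ flux read on FDSS7000. Fluorescence as F/F0 fold over basal, normalized to maximal glutamate response; EC50 from unconstrained 4-parameter logistic fit, triplicates weighted evenly.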

[1] = NAM potency, decrease of glutamate EC80 response, >30,000 = no measurable activity, >10,000 = no plateau, read-out: rat mGlu3 IC50
[2] = read-out: rat mGlu5 EC50 or IC50
[3] = Table 2 compounds with X = NMe, response at 30 μM compound as percentage of maximal glutamate response

Sequence of rat mGlu3 (P31422 23-879): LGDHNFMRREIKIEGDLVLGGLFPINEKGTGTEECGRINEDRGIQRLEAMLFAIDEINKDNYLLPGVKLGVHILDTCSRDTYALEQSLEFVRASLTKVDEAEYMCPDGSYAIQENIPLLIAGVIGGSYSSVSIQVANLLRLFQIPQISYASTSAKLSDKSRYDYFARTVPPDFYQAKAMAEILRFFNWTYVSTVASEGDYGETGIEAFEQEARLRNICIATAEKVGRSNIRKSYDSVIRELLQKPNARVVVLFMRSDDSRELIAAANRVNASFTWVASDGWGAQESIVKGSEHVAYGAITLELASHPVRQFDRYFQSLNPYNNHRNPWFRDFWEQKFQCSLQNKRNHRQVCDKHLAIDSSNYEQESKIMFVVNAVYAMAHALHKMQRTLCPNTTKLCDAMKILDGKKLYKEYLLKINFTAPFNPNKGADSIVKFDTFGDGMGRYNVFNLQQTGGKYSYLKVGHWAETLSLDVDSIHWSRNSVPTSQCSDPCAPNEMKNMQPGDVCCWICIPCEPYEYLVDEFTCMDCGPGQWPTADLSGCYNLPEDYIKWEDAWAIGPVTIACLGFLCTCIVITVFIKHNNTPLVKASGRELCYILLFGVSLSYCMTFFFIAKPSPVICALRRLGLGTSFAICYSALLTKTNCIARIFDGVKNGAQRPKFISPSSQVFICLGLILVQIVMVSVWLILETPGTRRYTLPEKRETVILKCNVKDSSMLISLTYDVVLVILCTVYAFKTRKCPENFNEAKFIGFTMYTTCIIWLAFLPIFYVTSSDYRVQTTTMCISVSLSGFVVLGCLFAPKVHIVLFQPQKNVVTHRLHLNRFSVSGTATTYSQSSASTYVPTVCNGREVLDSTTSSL
Sequence of rat mGlu5 (P31424 21-1203): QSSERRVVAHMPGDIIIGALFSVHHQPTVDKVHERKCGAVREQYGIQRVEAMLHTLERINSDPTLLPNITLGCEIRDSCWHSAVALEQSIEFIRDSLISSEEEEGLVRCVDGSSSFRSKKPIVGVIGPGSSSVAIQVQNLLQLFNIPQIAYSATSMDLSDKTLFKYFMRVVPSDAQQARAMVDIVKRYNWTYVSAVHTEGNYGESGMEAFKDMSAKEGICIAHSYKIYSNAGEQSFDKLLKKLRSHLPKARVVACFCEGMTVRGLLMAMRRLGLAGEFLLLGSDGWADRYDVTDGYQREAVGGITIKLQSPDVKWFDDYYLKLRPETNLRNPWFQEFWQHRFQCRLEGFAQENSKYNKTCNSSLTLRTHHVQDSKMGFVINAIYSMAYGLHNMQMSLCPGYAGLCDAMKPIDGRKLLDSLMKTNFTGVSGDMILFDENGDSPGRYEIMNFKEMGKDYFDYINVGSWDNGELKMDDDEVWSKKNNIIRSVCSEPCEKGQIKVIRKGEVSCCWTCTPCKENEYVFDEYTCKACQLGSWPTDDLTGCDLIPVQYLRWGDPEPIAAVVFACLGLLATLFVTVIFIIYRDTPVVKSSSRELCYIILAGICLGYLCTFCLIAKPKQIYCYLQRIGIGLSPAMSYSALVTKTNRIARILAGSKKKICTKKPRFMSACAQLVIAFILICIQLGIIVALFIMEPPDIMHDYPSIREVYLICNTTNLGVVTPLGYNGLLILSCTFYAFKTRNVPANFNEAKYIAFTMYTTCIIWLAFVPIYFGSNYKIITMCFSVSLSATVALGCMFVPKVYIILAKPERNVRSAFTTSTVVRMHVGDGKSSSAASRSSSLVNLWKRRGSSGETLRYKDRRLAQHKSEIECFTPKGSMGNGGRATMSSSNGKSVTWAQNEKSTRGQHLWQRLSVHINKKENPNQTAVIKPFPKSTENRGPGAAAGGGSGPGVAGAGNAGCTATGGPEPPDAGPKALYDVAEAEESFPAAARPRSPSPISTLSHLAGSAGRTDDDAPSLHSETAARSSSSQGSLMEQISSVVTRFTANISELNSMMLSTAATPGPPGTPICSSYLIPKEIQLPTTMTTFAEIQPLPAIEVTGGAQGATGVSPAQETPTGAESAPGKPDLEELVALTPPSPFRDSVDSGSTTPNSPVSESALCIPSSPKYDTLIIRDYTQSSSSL

Row | Compound | IC50 (rat mGlu3; [1]) | remaining activity at 30 µM (rat mGlu3) | Fold selectivity (mGlu3 vs. mGlu5) (rat mGlu5) | EC50 (rat mGlu5; [2]) | Emax at 30 µM (rat mGlu5) | IC50 (rat mGlu3; Table 2 compounds with X = NMe, read-out: mGlu3 IC50) | mGlu3 Glu max (rat mGlu3; [3]) | EC50 (rat mGlu5; Table 2 compounds with X = NMe, read-out: mGlu5 EC50) | mGlu5 Glu max (rat mGlu5; [3]) | IC50 (rat mGlu3; read-out: rat mGlu3 IC50)
1 | COc1ccc(N(C)Cc2cc3n(n2)CCN(c2cccc(Cl)c2)C3=O)cc1 [Compound 98, 5-(3-chlorophenyl)-2-(((4-methoxyphenyl)(methyl)amino)methyl)-6,7-dihydropyrazolo[1,5-a]pyrazin-4(5H)-one] | 668 nM | 1.53% | >44 | > 30000 nM | – | – | – | – | – | –
2 | O=C1c2cc(CNc3ccc(OC(F)F)cc3F)nn2CCN1c1ncccc1F [Compound 143, 2-(((4-(difluoromethoxy)-2-fluorophenyl)amino)methyl)-5-(3-fluoropyridin-2-yl)-6,7-dihydropyrazolo[1,5-a]pyrazin-4(5H)-one] | 950 nM | 1.31% | >31 | > 30000 nM | – | – | – | – | – | –
3 | COc1ccc(N(C)Cc2cc3n(n2)CCN(c2c(F)cc(F)cc2F)C3=O)cc1 [Compound 102, 2-(((4-methoxyphenyl)(methyl)amino)methyl)-5-(2,4,6-trifluorophenyl)-6,7-dihydropyrazolo[1,5-a]pyrazin-4(5H)-one] | 801 nM | 1.68% | >37 | > 30000 nM | – | – | – | – | – | –
4 | COc1cccc(NCc2cc3n(n2)[C@H](C)CN(c2ccc(F)cc2)C3=O)c1 [Compound 52, (R)-5-(4-fluorophenyl)-2-(((3-methoxyphenyl)amino)methyl)-7-methyl-6,7-dihydropyrazolo[1,5-a]pyrazin-4(5H)-one] | 2720 nM | 4.06% | >11 | > 30000 nM | – | – | – | – | – | –
5 | O=C1c2cc(CNc3ccccc3)nn2CCN1c1ccc(F)cc1 [Compound 2, 5-(4-fluorophenyl)-2-((phenylamino)methyl)-6,7-dihydropyrazolo[1,5-a]pyrazin-4(5H)-one] | 1320 nM | 1.99% | 1.55 | 2040 nM | 98.3% | – | – | – | – | –
6 | O=C1c2cc(CNc3ccc(OC(F)F)cc3F)nn2CCN1c1cccc(F)c1 [Compound 95, 2-(((4-(Difluoromethoxy)-2-fluorophenyl)amino)methyl)-5-(3-fluorophenyl)-6,7-dihydropyrazolo[1,5-a]pyrazin-4(5H)-one] | 588 nM | 3.43% | >17 | > 10000 nM | 31.1% | – | – | – | – | –
7 | Cc1cc(NCc2cc3n(n2)CCN(c2ccc(F)cc2)C3=O)ccc1F [Compound 36, 2-(((4-fluoro-3-methylphenyl)amino)methyl)-5-(4-fluorophenyl)-6,7-dihydropyrazolo[1,5-a]pyrazin-4(5H)-one] | 1670 nM | 1.91% | >17 | > 30000 nM | – | – | – | – | – | –
8 | CN(Cc1cc2n(n1)CCN(c1ccc(F)cc1)C2=O)c1cccc(F)c1 [drawing 31 X = NMe] | – | – | – | – | – | 594 nM | 2% | 7760 nM | 110% | –
9 | O=C1c2cc(CNc3ccc(F)cc3F)nn2CCN1c1ccc(F)cc1 [Compound 28, 2-(((2,4-difluorophenyl)amino)methyl)-5-(4-fluorophenyl)-6,7-dihydropyrazolo[1,5-a]pyrazin-4(5H)-one] | 1250 nM | 1.76% | 1.21 | 1510 nM | 80.6% | – | – | – | – | –
10 | C[C@@H]1CN(c2ccc(F)cc2)C(=O)c2cc(CNc3ccc(F)c(F)c3)nn21 [Compound 77, (R)-2-(((3,4-difluorophenyl)amino)methyl)-5-(4-fluorophenyl)-7-methyl-6,7-dihydropyrazolo[1,5-a]pyrazin-4(5H)-one] | 1570 nM | 3.77% | >19 | > 30000 nM | – | – | – | – | – | –
11 | C[C@H]1CN(c2ccc(F)cc2)C(=O)c2cc(CNc3ccc(F)c(F)c3)nn21 [Compound 78, (S)-2-(((3,4-difluorophenyl)amino)methyl)-5-(4-fluorophenyl)-7-methyl-6,7-dihydropyrazolo[1,5-a]pyrazin-4(5H)-one] | 1170 nM | 1.23% | >8.5 | > 10000 nM | 61.6% | – | – | – | – | –
12 | COc1ccc(NCc2cc3n(n2)[C@@H](C)CN(c2ccc(F)cc2)C3=O)cc1 [Compound 63, (S)-5-(4-fluorophenyl)-2-(((4-methoxyphenyl)amino)methyl)-7-methyl-6,7-dihydropyrazolo[1,5-a]pyrazin-4(5H)-one] | 8370 nM | -0.6% | >3.5 | > 30000 nM | – | – | – | – | – | –
13 | O=C1c2cc(CNc3ccc(OC(F)F)cc3F)nn2CCN1c1ccc(F)cn1 [Compound 146, 2-(((4-(difluoromethoxy)-2-fluorophenyl)amino)methyl)-5-(5-fluoropyridin-2-yl)-6,7-dihydropyrazolo[1,5-a]pyrazin-4(5H)-one] | 578 nM | 2.03% | >51 | > 30000 nM | – | – | – | – | – | –
14 | C[C@@H]1CN(c2ccc(F)cc2)C(=O)c2cc(CNc3cccc(F)c3)nn21 [Compound 46, (R)-5-(4-fluorophenyl)-2-(((3-fluorophenyl)amino)methyl)-7-methyl-6,7-dihydropyrazolo[1,5-a]pyrazin-4(5H)-one] | – | 0.58% | >8.2 | > 10000 nM | 24.6% | – | – | – | – | 1210 nM
15 | O=C1c2cc(CNc3ccc(OC(F)F)cc3F)nn2CCN1c1ccc(F)cc1 [Compound 37, 2-(((4-(difluoromethoxy)-2-fluorophenyl)amino)methyl)-5-(4-fluorophenyl)-6,7-dihydropyrazolo[1,5-a]pyrazin-4(5H)-one] | – | 2.57% | >29 | > 10000 nM | 38.4% | – | – | – | – | 334 nM
16 | COc1ccc(N(C)Cc2cc3n(n2)CCN(c2cc(F)ccc2F)C3=O)cc1 [Compound 106, 5-(2,5-difluorophenyl)-2-(((4-methoxyphenyl)(methyl)amino)methyl)-6,7-dihydropyrazolo[1,5-a]pyrazin-4(5H)-one] | – | 0.79% | >29 | > 30000 nM | – | – | – | – | – | 1020 nM
17 | N#Cc1cccc(NCc2cc3n(n2)CCN(c2ccc(F)cc2)C3=O)c1 [Compound 11, 3-(((5-(4-fluorophenyl)-4-oxo-4,5,6,7-tetrahydropyrazolo[1,5-a]pyrazin-2-yl)methyl)amino)benzonitrile] | 1250 nM | 1.48% | >24 | > 30000 nM | – | – | – | – | – | –
18 | C[C@@H]1CN(c2ccc(F)cc2)C(=O)c2cc(CNc3ccc(Cl)cc3)nn21 [Compound 60, (R)-2-(((4-chlorophenyl)amino)methyl)-5-(4-fluorophenyl)-7-methyl-6,7-dihydropyrazolo[1,5-a]pyrazin-4(5H)-one] | 1250 nM | 0.56% | >8.0 | > 10000 nM | 31.5% | – | – | – | – | –
19 | Cc1ccc(N2CCn3nc(CNc4ccc(OC(F)F)cc4F)cc3C2=O)nc1 [Compound 144, 2-(((4-(difluoromethoxy)-2-fluorophenyl)amino)methyl)-5-(5-methylpyridin-2-yl)-6,7-dihydropyrazolo[1,5-a]pyrazin-4(5H)-one] | 1740 nM | 5.68% | >17 | > 30000 nM | – | – | – | – | – | –
20 | Cc1ccc(NCc2cc3n(n2)[C@H](C)CN(c2ccc(F)cc2)C3=O)cc1 [Compound 58, (R)-5-(4-fluorophenyl)-7-methyl-2-((p-tolylamino)methyl)-6,7-dihydropyrazolo[1,5-a]pyrazin-4(5H)-one] | 1830 nM | 1.27% | >16 | > 30000 nM | – | – | – | – | – | –
21 | CN(Cc1cc2n(n1)CCN(c1ccc(F)cc1)C2=O)c1ccc(C#N)cc1 [Compound 93, 4-(((5-(4-fluorophenyl)-4-oxo-4,5,6,7-tetrahydropyrazolo[1,5-a]pyrazin-2-yl)methyl)(methyl)amino)benzonitrile] | 1130 nM | 1.47% | >8.8 | > 10000 nM | 57.2% | – | – | – | – | –
22 | CC(Nc1ccccc1)c1cc2n(n1)CCN(c1ccc(F)cc1)C2=O (centres unmarked) [Compound 170, 5-(4-fluorophenyl)-2-(1-(phenylamino)ethyl)-6,7-dihydropyrazolo[1,5-a]pyrazin-4(5H)-one] | 2850 nM | 0.67% | >10 | > 30000 nM | – | – | – | – | – | –
23 | COc1ccc(N(C)Cc2cc3n(n2)CCN(c2c(F)cccc2F)C3=O)cc1 [Compound 110, 5-(2,6-difluorophenyl)-2-(((4-methoxyphenyl)(methyl)amino)methyl)-6,7-dihydropyrazolo[1,5-a]pyrazin-4(5H)-one] | 1640 nM | 1.75% | >18 | > 30000 nM | – | – | – | – | – | –
24 | COc1ccccc1N(C)Cc1cc2n(n1)CCN(c1ccc(F)cc1)C2=O [Compound 85, 5-(4-fluorophenyl)-2-(((2-methoxyphenyl)(methyl)amino)methyl)-6,7-dihydropyrazolo[1,5-a]pyrazin-4(5H)-one] | 9480 nM | -7.96% | >3.1 | > 30000 nM | – | – | – | – | – | –
